Assay results as given in ChEMBL document CHEMBL1150947, “Indole alkaloids from the tunicate Aplidium meridianum” (J Nat Prod, 1998).

Test: Cytotoxicity against mouse LMM3 cells
Type: functional, cell-based

| Structure (SMILES) | IC50 |
| --- | --- |
| Nc1nccc(-c2c[nH]c3cc(Br)cc(O)c23)n1 [MERIDIANIN B] | 11.4 µM |
| Nc1nccc(-c2c[nH]c3ccc(Br)cc23)n1 [MERIDIANIN C] | 9.3 µM |
